Results published in patent US10669242B2 (priority 2016, dated 2020).

Experiments:
[1] = tested on: C. difficile toxin (TcdA and TcdB, ~1:1); assay: Murine C. difficile toxin model (intrarectal toxin); type: in vivo, C57BL/6 mice; details: murine C. difficile toxin model, PO, 50 mg/kg body weight
Description: In the following studies, we established a murine C. difficile toxin model with modifications from a published murine model (Hirota, Iablokov et al. 2012). Details of the murine C. difficile toxin model are described in the “Experimental Protocols” (below). C. difficile toxins were isolated from a culture of the C. difficile strain VPI 10463. C. difficile toxins consisted of TcdA and TcdB (˜1:1 ratio of TcdA:TcdB). Respective TcdA and TcdB concentrations were determined by enzyme-linked immunosorbant assay (ELISA). In our mouse model, C. difficile toxins were administered intrarectally to evaluate their pathological effects.
We administered C. difficile toxin (12.5 μg/mouse) via intrarectal instillation into female C57BL/6 mice. Four (4) animals were used in each group. Four (4) hours after the toxin administration, the mice were euthanized. The colons were excised from the animals and washed with phosphate buffered saline (PBS). The colon lengths were measured. Excised colon tissues were stored at −70° C. for chemical analysis of interleukin-1β(IL-1β) and myeloperosidase (MPO) in tissues, which are the hallmarks of colon inflammation. Excised colon tissues were also stored at room temperature in 10% neutral buffered formalin for histopathological analysis.
Using the murine C. difficile toxin model (Example 61), we evaluated the efficacy of Example 6a in reducing the C. difficile toxin activity. In this study, the isolated toxin (12.5 μg) was diluted in 50 μl of PBS and mixed with a 50 μl suspension of Example 6a (10 mg/mL) in 1% carboxymethyl cellulose and 0.5% Tween 80 to achieve a fixed dose of […] of Example 6a (0.5 mg in mice weighing ˜20 g) and C. difficile toxin (12.5 μg). Three (3) animals were used in each group.
In this study, we evaluated the efficacy of Example 6a via different routes of administration (i.e., oral (PO) and intraperitoneal (IP) administrations) in the same murine C. difficile toxin model (Example 61). In both PO and IP dosages, Example 6a was prepared as 5 mg/mL solutions in 20% PEG-400, 0.4% carboxymethyl cellulose and 0.2% Tween 80. Example 6a was administered at a final dose of 50 mg/kg body weight. Three (3) mice were used in each group (i.e., vehicle (control), PO and IP).
Using the murine C. difficile toxin model (Example 63), we further tested the efficacy of four (4) additional compounds (i.e., Example 6a, Example 5ae, Example 4cl, and Example 5al) via PO administration. All of the compounds were dosed orally at 50 mg/kg body weight. In three separate studies a total of three (3) to fourteen (14) mice were used in each group.
We evaluated the efficacy of additional compounds in reducing C. difficile toxicity. Using the PO administration (Example 63), we further tested 30 compounds (Table 34). All of the compounds were dosed orally at 50 mg/kg body weight. Three (3) to fourteen (14) animals were used for each compound. % inhibition was determined by the following formula: […]
An overnight culture of C. difficile strain VPI 10463 (American Type Culture Collection) was grown at 37° C. in Brain-Heart Infusion (BHI) broth using the GasPak EZ Anaerobe Pouch System (Becton Dickinson). 2 mL of the culture was added to 28 mL of phosphate buffered saline (PBS) in a gamma-irradiated, 10,000 molecular weight cut-off, 30-70 ml Slide-A-Lyzer G2 dialysis cassette (Pierce). This cassette was submerged in 1 L of BHI broth in a 2 L beaker and incubated under anaerobic conditions for 5 days at 37° C. The culture was then transferred to a 50 mL conical tube and the cassette was washed with 10 mL of PBS. The combined culture and wash were centrifuged at 2,000 g for 20 minutes to pellet the bacteria and the supernatant was filtered through a 0.2 μm syringe filter. The filtrate was then applied to a 20 mL 150 K molecular weight cut-off concentration column (Pierce) and centrifuged at 2,000 g for 15 minutes. Concentrated supernatant was stored at 4° C. […]

[2] = molecular target: T1, recombinant glucosyltransferase domain of C. difficile Toxin B/TcdB (Clostridioides difficile, UniProt P18177); assay: biochemical
T1 construct: 6-His (C); purchased R&D Systems 6246-GT
T1 sequence (P18177 1-543): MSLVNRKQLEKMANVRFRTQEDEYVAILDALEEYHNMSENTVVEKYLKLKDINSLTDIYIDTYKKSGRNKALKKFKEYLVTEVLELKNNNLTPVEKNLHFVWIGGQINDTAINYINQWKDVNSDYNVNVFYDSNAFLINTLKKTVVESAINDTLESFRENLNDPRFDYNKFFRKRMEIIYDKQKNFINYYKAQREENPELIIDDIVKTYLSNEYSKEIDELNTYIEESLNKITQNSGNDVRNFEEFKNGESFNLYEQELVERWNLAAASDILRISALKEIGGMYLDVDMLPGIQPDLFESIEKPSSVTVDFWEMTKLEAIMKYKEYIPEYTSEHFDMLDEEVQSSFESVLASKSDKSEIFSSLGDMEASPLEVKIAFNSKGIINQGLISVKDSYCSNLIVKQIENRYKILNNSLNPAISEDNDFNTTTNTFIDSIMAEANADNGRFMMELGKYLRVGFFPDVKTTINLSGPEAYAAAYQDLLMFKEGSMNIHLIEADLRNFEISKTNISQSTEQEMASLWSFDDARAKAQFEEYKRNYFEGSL

[3] = molecular target: T2, C. difficile full-length toxin TcdA (Clostridioides difficile, UniProt P16154); assay: cell-based
T2 construct: C. difficile full-length toxins (TcdA or TcdB); purchased Enzo Life Sciences BML-G140-0050

[4] = molecular target: T3, C. difficile full-length toxin TcdB (Clostridioides difficile, UniProt P18177); assay: cell-based
T3 construct: C. difficile full-length toxins (TcdA or TcdB); purchased EMD Millipore 616377
T3 sequence (P18177 2-2366 limits assumed): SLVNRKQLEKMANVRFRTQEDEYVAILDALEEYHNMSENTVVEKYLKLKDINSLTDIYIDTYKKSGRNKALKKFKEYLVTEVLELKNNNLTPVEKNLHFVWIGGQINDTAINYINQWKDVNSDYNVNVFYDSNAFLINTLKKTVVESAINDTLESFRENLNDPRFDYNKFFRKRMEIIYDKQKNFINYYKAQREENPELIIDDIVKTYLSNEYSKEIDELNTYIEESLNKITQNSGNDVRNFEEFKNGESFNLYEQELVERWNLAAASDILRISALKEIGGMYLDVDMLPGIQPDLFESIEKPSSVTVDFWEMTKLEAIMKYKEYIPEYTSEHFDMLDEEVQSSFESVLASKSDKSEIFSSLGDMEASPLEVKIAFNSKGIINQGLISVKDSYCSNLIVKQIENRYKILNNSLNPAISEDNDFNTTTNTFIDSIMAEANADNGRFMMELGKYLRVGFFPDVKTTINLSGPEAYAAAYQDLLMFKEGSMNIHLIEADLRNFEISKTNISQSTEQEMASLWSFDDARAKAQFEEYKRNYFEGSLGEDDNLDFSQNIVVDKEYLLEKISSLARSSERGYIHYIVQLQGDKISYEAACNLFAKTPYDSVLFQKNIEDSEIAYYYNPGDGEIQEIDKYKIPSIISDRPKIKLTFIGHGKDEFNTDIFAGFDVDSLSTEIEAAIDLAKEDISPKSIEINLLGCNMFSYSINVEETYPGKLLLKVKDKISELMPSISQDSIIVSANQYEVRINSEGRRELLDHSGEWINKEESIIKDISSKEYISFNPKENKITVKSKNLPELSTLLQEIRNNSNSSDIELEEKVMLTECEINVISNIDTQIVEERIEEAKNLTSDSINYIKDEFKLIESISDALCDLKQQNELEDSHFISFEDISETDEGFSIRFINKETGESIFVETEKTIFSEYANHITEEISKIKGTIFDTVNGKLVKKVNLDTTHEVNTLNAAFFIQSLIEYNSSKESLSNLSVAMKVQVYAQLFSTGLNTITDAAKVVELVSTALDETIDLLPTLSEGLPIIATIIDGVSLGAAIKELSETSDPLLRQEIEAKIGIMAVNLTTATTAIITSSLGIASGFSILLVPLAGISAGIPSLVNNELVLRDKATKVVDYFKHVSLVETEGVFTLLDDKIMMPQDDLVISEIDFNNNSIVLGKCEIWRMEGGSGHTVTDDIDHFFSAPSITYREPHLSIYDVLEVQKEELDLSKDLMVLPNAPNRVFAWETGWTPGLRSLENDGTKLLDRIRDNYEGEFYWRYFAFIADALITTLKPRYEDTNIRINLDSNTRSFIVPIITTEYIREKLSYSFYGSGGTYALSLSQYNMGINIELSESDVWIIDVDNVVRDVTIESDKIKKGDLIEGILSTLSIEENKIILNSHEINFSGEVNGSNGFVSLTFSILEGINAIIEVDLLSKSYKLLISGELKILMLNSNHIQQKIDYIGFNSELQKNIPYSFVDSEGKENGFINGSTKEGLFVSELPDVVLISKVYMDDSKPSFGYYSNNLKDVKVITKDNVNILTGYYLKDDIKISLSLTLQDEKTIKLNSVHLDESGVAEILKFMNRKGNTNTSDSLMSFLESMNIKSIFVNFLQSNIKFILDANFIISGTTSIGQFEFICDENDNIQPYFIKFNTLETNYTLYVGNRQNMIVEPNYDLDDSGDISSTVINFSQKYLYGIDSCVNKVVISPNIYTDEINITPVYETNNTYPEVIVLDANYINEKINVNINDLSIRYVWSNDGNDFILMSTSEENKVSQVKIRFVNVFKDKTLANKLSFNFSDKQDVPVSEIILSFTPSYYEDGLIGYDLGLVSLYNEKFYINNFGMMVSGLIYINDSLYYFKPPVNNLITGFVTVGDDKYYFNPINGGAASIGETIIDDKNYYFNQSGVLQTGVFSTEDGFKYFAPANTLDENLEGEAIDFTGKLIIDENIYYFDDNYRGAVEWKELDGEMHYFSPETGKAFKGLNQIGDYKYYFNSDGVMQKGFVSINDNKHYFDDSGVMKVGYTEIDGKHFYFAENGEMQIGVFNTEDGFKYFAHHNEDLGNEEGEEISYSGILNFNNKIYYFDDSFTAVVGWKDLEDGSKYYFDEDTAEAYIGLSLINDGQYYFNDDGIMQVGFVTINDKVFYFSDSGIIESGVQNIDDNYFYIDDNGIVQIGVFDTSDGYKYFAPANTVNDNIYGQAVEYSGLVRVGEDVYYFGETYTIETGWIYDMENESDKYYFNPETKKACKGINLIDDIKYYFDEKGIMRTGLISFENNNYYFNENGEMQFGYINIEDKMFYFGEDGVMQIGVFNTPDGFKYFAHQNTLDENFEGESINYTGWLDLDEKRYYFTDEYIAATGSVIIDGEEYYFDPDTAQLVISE

O=C(c1ccccn1)c1ccc(CN2C(=O)c3ccc(Cl)cc3NC(=O)[C@H]2Cc2ccccn2)cc1Cl [Example 11g, (R)-8-Chloro-4-(3-chloro-4-picolinoylbenzyl)-3-(pyridin-2-ylmethyl)-3,4-dihydro-1H-benzo[e][1,4]diazepine-2,5-dione]
IL-1β (% Inhibition) [1]: 15%
MPO (% Inhibition) [1]: 28%
IC50 [2]: < 0.1 µM
IC50 [3]: > 10 µM
IC50 [4]: 1 to 10 µM

Cc1ccc(C(=O)c2ccc(CN3C(=O)c4ccc(Cl)cc4NC(=O)[C@H]3Cc3ccccn3)cc2)nc1 [Example 11b, (R)-8-Chloro-4-(4-(5-methylpicolinoyl)benzyl)-3-(pyridin-2-ylmethyl)-3,4-dihydro-1H-benzo[e][1,4]diazepine-2,5-dione]
IL-1β (% Inhibition) [1]: 52%
MPO (% Inhibition) [1]: 100%
IC50 [2]: < 0.1 µM
IC50 [3]: > 10 µM
IC50 [4]: 1 to 10 µM

Cn1cc(C(=O)c2ccc(CN3C(=O)c4ccc(Cl)cc4NC(=O)[C@H]3Cc3ccccn3)cc2)c2ncccc21 [Example 31a, (R)-8-Chloro-4-(4-(1-methyl-1H-pyrrolo[3,2-b]pyridine-3-carbonyl)benzyl)-3-(pyridin-2-ylmethyl)-3,4-dihydro-1H-benzo[e][1,4]diazepine-2,5-dione]
IL-1β (% Inhibition) [1]: 100%
MPO (% Inhibition) [1]: 100%
IC50 [2]: < 0.1 µM
IC50 [3]: 1 to 10 µM
IC50 [4]: 0.1 to 0.999 µM

O=C(c1ccc(CN2C(=O)c3ccc(Cl)cc3NC(=O)[C@H]2Cc2ccccn2)cc1)c1ccccn1 [Example 11a, (R)-8-Chloro-4-(4-picolinoylbenzyl)-3-(pyridin-2-ylmethyl)-3,4-dihydro-1H-benzo[e][1,4]diazepine-2,5-dione]
IL-1β (% Inhibition) [1]: 22%
MPO (% Inhibition) [1]: 0%
IC50 [2]: < 0.1 µM
IC50 [3]: > 10 µM
IC50 [4]: 1 to 10 µM

O=C(c1ccc(CN2C(=O)c3ccc(Cl)cc3NC(=O)[C@H]2Cc2ccccn2)cc1)c1cccn2ccnc12 [Example 34a, (R)-8-Chloro-4-(4-(imidazo[1,2-α]pyridine-8-carbonyl)benzyl)-3-(pyridin-2-ylmethyl)-3,4-dihydro-1H-benzo[e][1,4]diazepine-2,5-dione]
IC50 [2]: < 0.1 µM
IC50 [3]: > 10 µM
IC50 [4]: 0.1 to 0.999 µM

O=C(c1ccc(CN2C(=O)c3ccc(Cl)cc3NC(=O)[C@H]2Cc2ccccn2)cc1)c1c[nH]c2cccnc12 [Example 32a, 4-(4-(1H-Pyrrolo[3,2-b]pyridine-3-carbonyl)benzyl)-8-chloro-3-(pyridin-2-ylmethyl)-3,4-dihydro-1H-benzo[e][1,4]diazepine-2,5-dione]
IL-1β (% Inhibition) [1]: 72%
MPO (% Inhibition) [1]: 76%
IC50 [2]: < 0.1 µM

COc1cnc(NC(=O)c2ccc(CN3C(=O)c4ccc(Cl)cc4NC(=O)[C@H]3Cc3ccccn3)cc2C)cn1 [Example 5af, (R)-4-((8-Chloro-2,5-dioxo-3-(pyridin-2-ylmethyl)-2,3-dihydro-1H-benzo[e][1,4]diazepin-4(5H)-yl)methyl)-N-(5-methoxypyrazin-2-yl)-2-methylbenzamide]
IL-1β (% Inhibition) [1]: 100%
MPO (% Inhibition) [1]: 100%
IC50 [2]: < 0.1 µM
IC50 [3]: 1 to 10 µM
IC50 [4]: 0.1 to 0.999 µM

COc1cnc(NC(=O)c2ccc(CN3C(=O)c4ccc(Cl)cc4NC(=O)[C@H]3Cc3ccccn3)cc2C)nc1 [Example 5ai, (R)-4-((8-Chloro-2,5-dioxo-3-(pyridin-2-ylmethyl)-2,3-dihydro-1H-benzo[e][1,4]diazepin-4(5H)-yl)methyl)-N-(5-methoxypyrimidin-2-yl)-2-methylbenzamide]
IL-1β (% Inhibition) [1]: 96%
MPO (% Inhibition) [1]: 79%
IC50 [2]: < 0.1 µM
IC50 [3]: 0.1 to 0.999 µM
IC50 [4]: < 0.1 µM

Cc1cnc(NC(=O)c2ccc(CN3C(=O)c4ccc(Cl)cc4NC(=O)[C@H]3Cc3ccccn3)cc2C)cn1 [Example 5ah, (R)-4-((8-Chloro-2,5-dioxo-3-(pyridin-2-ylmethyl)-2,3-dihydro-1H-benzo[e][1,4]diazepin-4(5H)-yl)methyl)-2-methyl-N-(5-methylpyrazin-2-yl)benzamide]
IL-1β (% Inhibition) [1]: 91%
MPO (% Inhibition) [1]: 65%
IC50 [2]: < 0.1 µM
IC50 [3]: 1 to 10 µM
IC50 [4]: 0.1 to 0.999 µM

COc1cnc(NC(=O)c2ccc(CN3C(=O)c4ccc(Cl)cc4NC(=O)[C@H]3Cc3ccccn3)cc2Cl)nc1 [Example 5ab, (R)-2-Chloro-4-((8-chloro-2,5-dioxo-3-(pyridin-2-ylmethyl)-2,3-dihydro-1H-benzo[e][1,4]diazepin-4(5H)-yl)methyl)-N-(5-methoxypyrimidin-2-yl)benzamide]
IL-1β (% Inhibition) [1]: 100%
MPO (% Inhibition) [1]: 100%
IC50 [2]: < 0.1 µM
IC50 [3]: 1 to 10 µM
IC50 [4]: < 0.1 µM

Cn1cc(C(=O)[C@H]2CC[C@H](CN3C(=O)c4ccc(Cl)cc4NC(=O)[C@H]3Cc3ccccn3)CC2)c2ncccc21 [Example 33b, (R)-8-Chloro-4-(((1r,4R)-4-(1-methyl-1H-pyrrolo[3,2-b]pyridine-3-carbonyl)cyclohexyl)methyl)-3-(pyridin-2-ylmethyl)-3,4-dihydro-1H-benzo[e][1,4]diazepine-2,5-dione]
IL-1β (% Inhibition) [1]: 84%
MPO (% Inhibition) [1]: 41%
IC50 [2]: < 0.1 µM
IC50 [3]: 1 to 10 µM
IC50 [4]: 0.1 to 0.999 µM

COc1cc(CN2C(=O)c3ccc(Cl)cc3NC(=O)[C@H]2Cc2ccccn2)ccc1C(=O)Nc1ccc(C(F)(F)F)cn1 [Example 4au, (R)-4-((8-Chloro-2,5-dioxo-3-(pyridin-2-ylmethyl)-2,3-dihydro-1H-benzo[e][1,4]diazepin-4(5H)-yl)methyl)-2-methoxy-N-(5-(trifluoromethyl)pyridin-2-yl)benzamide]
IL-1β (% Inhibition) [1]: 40%
MPO (% Inhibition) [1]: 0%
IC50 [2]: < 0.1 µM
IC50 [3]: > 10 µM
IC50 [4]: 0.1 to 0.999 µM

Cc1ccc(NC(=O)c2ccc(CN3C(=O)c4ccc(Cl)cc4NC(=O)[C@H]3Cc3ccccn3)cc2C)nc1 [Example 4ck, (R)-4-((8-Chloro-2,5-dioxo-3-(pyridin-2-ylmethyl)-2,3-dihydro-1H-benzo[e][1,4]diazepin-4(5H)-yl)methyl)-2-methyl-N-(5-methylpyridin-2-yl)benzamide]
IL-1β (% Inhibition) [1]: 82%
MPO (% Inhibition) [1]: 79%
IC50 [2]: < 0.1 µM
IC50 [3]: 0.1 to 0.999 µM
IC50 [4]: < 0.1 µM

COc1cc(CN2C(=O)c3ccc(Cl)cc3NC(=O)[C@H]2Cc2ccccn2)ccc1C(=O)Nc1ccc(C)cn1 [Example 4cm, (R)-4-((8-Chloro-2,5-dioxo-3-(pyridin-2-ylmethyl)-2,3-dihydro-1H-benzo[e][1,4]diazepin-4(5H)-yl)methyl)-2-methoxy-N-(5-methylpyridin-2-yl)benzamide]
IL-1β (% Inhibition) [1]: 49%
MPO (% Inhibition) [1]: 35%
IC50 [2]: < 0.1 µM
IC50 [3]: > 10 µM
IC50 [4]: 0.1 to 0.999 µM

O=C1Nc2cc(Cl)ccc2C(=O)N(Cc2ccc(N3CCc4cccnc4C3=O)cc2)[C@@H]1Cc1ccccn1 [Example 49b, (R)-8-Chloro-4-(4-(8-oxo-5,6-dihydro-1,7-naphthyridin-7(8H)-yl)benzyl)-3-(pyridin-2-ylmethyl)-3,4-dihydro-1H-benzo[e][1,4]diazepine-2,5-dione]
IL-1β (% Inhibition) [1]: 13%
MPO (% Inhibition) [1]: 0%
IC50 [2]: < 0.1 µM
IC50 [3]: > 10 µM
IC50 [4]: 1 to 10 µM
